Compound	logP
CC(C)Cc1ccccc1	4.68
Cc1ccccc1C(C)C	4.38
Cc1ccc(C)cc1	3.42
CCc1cccc(C)c1C	4.34
Cc1ccc(C)c(C)c1	3.91
CCc1c(C)cccc1C	4.28
CCc1ccccc1C	3.86
CCc1cc(C)ccc1C	4.43
Cc1cccc(C)c1C	3.78
CCc1ccc(C)c(C)c1	4.5
CCCc1ccc(C)cc1	4.6

The remaining lines, values ahead:

logP	Compound
4.67	CCCc1cccc(C)c1
4.5	CCCc1ccccc1C
4.47	CCc1ccc(C)cc1C
7.11	CCCCCCCCCc1ccccc1
4.57	CCC(C)c1ccccc1 (stereo not given)
4	CCc1ccc(C)cc1
4.5	Cc1cccc(C(C)C)c1
4.55	CCc1cc(C)cc(C)c1
3.98	CCc1cccc(C)c1
